Publication PMC5442318, “Hundreds of dual-stage antimalarial molecules discovered by a functional gametocyte screen” (Nature Communications, 2017)
pIC50: −log10 of the molar value. Like-named read-outs stand apart in the source and are kept apart here.

How the values were obtained:
[1] = system: P. falciparum asexual blood stages; conditions: read-out: Pf Asexual blood stages XC50, cited from earlier work
[2] = system: P. falciparum stages IV–V gametocytes; assay: Gametocytocidal ATP-depletion assay (gametocyte ATP bioluminescence); assay type: cell-based, Plasmodium falciparum
Method in brief: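 Purified stage IV–V gametocytes (12,500/well) incubated with compound for 48 h at 37 °C under 3% O2/5% CO2. ATP measured by BacTiter-Glo luminescence as a viability surrogate; hits tested at 2 μM single concentration.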

[3] = system: P. falciparum stage V female gametocytes; assay: P. falciparum female gametocyte activation assay (Pf FGAA), 24 h or 48 h preincubation, Pfs25 expression readout; assay type: cell-based, Plasmodium falciparum NF54; conditions: mean, read-out: Gametocytes mean Pf FGAA IC50
Method in brief: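 Purified stage V gametocytes from P. falciparum NF54 gametocyte cultures were exposed to compounds for 24 h or 48 h at 37 °C under 3% O2/5% CO2, then activated by temperature drop plus xanthurenic acid. Activated females were stained with Cy3-anti-Pfs25 (0.5 μg ml^−1) for 24 h at 26 °C and counted by high-content imaging; pIC50 by nonlinear regression.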

HepG2 cells = assay: HepG2 cytotoxicity assay; assay type: cell-based
Method in brief: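 After compound incubation, plates and CellTiter-Glo reagent were brought to room temperature for 30 min. The reagent was then added, and luminescence was read after a 10 min room-temperature stabilization.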

[4] = TCAMS data, ref 1 (Gamo et al., 2010)
[5] = TCAMS asexual blood stage data, ref 1 (Gamo, F. J. et al., Nature 465, 305-310, 2010)
[6] = P. falciparum female gametocytes

## CC(C)(C)c1ccc(CNC(=O)c2ccc(CNC3CCC(N)CC3)s2)cc1 (stereo not drawn) [TCMDC-140777]
[1]; [4]
  pIC50: 6.28
[2]
  Gametocytes mean ATP inhibition at 2µM (%): 10.64%
[3]
  pIC50: 5.61
HepG2 cells; mean
  HepG2 cells mean TOX50: 8.95 µM

## COc1cc(CNCCCCCCNCc2cc(OC)c3ccccc3c2OC)c(OC)c2ccccc12.CS(=O)(=O)O [TCMDC-137502]
[1]; [4]
  pIC50: 6.15
[2]
  Gametocytes mean ATP inhibition at 2µM (%): 1.18%
[3]
  pIC50: 5.78
HepG2 cells; mean
  HepG2 cells mean TOX50: 3.67 µM

## Cc1n[nH]c2ccc(-c3ccc4nccc(N5CCC(N)CC5)c4c3)cc12.Cl [TCMDC-134315]
[1]; [5]
  pIC50: 6.23
[2]
  Gametocytes mean ATP inhibition at 2µM: 71.38%
[3]; [6]
  pIC50: 5.61
HepG2 cells; HepG2 cells; mean
  HepG2 cells mean TOX50: 6.88 µM

## CCCCCCOc1ccc2ccccc2c1CNCCCCCCNCc1c(OCCCCCC)ccc2ccccc12.CS(=O)(=O)O [TCMDC-137963]
[1]; [4]
  pIC50: 5.97
[2]
  Gametocytes mean ATP inhibition at 2µM (%): 77.54%
[3]
  pIC50: 5.82
HepG2 cells; mean
  HepG2 cells mean TOX50: 2.40 µM

## COc1cc2nc(N3CCN(c4nc(N)c5cc(OC)c(OC)cc5n4)CC3)nc(N)c2cc1OC [TCMDC-123865]
[1]; [5]
  pIC50: 6.82
[2]
  Gametocytes mean ATP inhibition at 2µM: 90.91%
[3]; [6]
  pIC50: 6.24
HepG2 cells; HepG2 cells; mean
  HepG2 cells mean TOX50: 52.49 µM

## CC(C)c1ccc(CN2CCC(CNC(=O)c3cc(-c4cccc(C(F)(F)F)c4)cs3)C2)cc1.O=C(O)C(F)(F)F (stereo not drawn) [TCMDC-134435]
[1]; [5]
  pIC50: 6.04
[2]
  Gametocytes mean ATP inhibition at 2µM: -4.54%
[3]; [6]
  pIC50: 5.89
HepG2 cells; HepG2 cells; mean
  HepG2 cells mean TOX50: 5.13 µM

## CC(CNC(=N)c1cccc(C(=N)NCC(C)Oc2cccc(C3CCCCC3)c2)n1)Oc1cccc(C2CCCCC2)c1.Cl (stereo not drawn) [TCMDC-137455]
[1]; [4]
  pIC50: 6.04
[2]
  Gametocytes mean ATP inhibition at 2µM (%): 92.56%
[3]
  pIC50: 5.90
HepG2 cells; mean
  HepG2 cells mean TOX50: 2.16 µM

## CN1CCN(CCCNCc2cccc(-c3ccc(CNCCc4ccccc4)cc3)c2)CC1 [TCMDC-140643]
[1]; [4]
  pIC50: 6.11
[2]
  Gametocytes mean ATP inhibition at 2µM (%): 22.49%
[3]
  pIC50: 5.72
HepG2 cells; mean
  HepG2 cells mean TOX50: 7.92 µM

## CCOc1cc(CNCCCCCCNCc2cc(OCC)c(OCC)c3ccccc23)c2ccccc2c1OCC.CS(=O)(=O)O [TCMDC-137939]
[1]; [4]
  pIC50: 6.55
[2]
  Gametocytes mean ATP inhibition at 2µM (%): 5.51%
[3]
  pIC50: 5.75
HepG2 cells; mean
  HepG2 cells mean TOX50: 2.00 µM

## CS(=O)(=O)O.FC(F)(F)COc1ccc(CCNCCCCNCCc2ccc(OCC(F)(F)F)c3ccccc23)c2ccccc12 [TCMDC-137282]
[1]; [4]
  pIC50: 6.19
[2]
  Gametocytes mean ATP inhibition at 2µM (%): 91.27%
[3]
  pIC50: 6.70
HepG2 cells; mean
  HepG2 cells mean TOX50: 1.66 µM

## Cc1occc1C(=O)Nc1nc(-c2ccccn2)nc2ccsc12 [TCMDC-135244]
[1]; [5]
  pIC50: 6.05
[2]
  Gametocytes mean ATP inhibition at 2µM: 87.21%
[3]; [6]
  pIC50: 7.22
HepG2 cells; HepG2 cells; mean
  HepG2 cells mean TOX50: >100 µM

## Cc1ccccc1OCC(O)CNC1CCC(NCC(O)COc2ccccc2C)CC1 (stereo not drawn) [TCMDC-125142]
[1]; [5]
  pIC50: 5.92
[2]
  Gametocytes mean ATP inhibition at 2µM: 39.31%
[3]; [6]
  pIC50: 5.95
HepG2 cells; HepG2 cells; mean
  HepG2 cells mean TOX50: 4.07 µM

## CC(NCCc1cccc(Cl)c1)C(O)c1ccc(OCCCCCCOc2ccc(C(O)C(C)NCCc3cccc(Cl)c3)cc2)cc1 (stereo not drawn) [TCMDC-139334]
[1]; [4]
  pIC50: 6.40
[2]
  Gametocytes mean ATP inhibition at 2µM (%): 41.15%
[3]
  pIC50: 6.00
HepG2 cells; mean
  HepG2 cells mean TOX50: 2.63 µM

## O=C(NC1CCN(CCN2CCC(c3c[nH]c4ccccc34)CC2)CC1)c1ccc(-c2ccc(C(F)(F)F)cc2)cc1 [TCMDC-138845]
[1]; [4]
  pIC50: 6.68
[2]
  Gametocytes mean ATP inhibition at 2µM (%): -6.33%
[3]
  pIC50: 5.74
HepG2 cells; mean
  HepG2 cells mean TOX50: 4.68 µM

## CC(C)(CN)c1nc(-c2ccc(Cl)c(O)c2)c(-c2ccncc2)[nH]1.Cl [TCMDC-140369]
[1]; [4]
  pIC50: 6.12
[2]
  Gametocytes mean ATP inhibition at 2µM (%): -0.49%
[3]
  pIC50: 6.03
HepG2 cells; mean
  HepG2 cells mean TOX50: 2.16 µM

## c1cc(C2=N[C@H]3CCCC[C@@H]3N2)ccc1OCCCOc1ccc(C2=N[C@@H]3CCCC[C@H]3N2)cc1 [TCMDC-137803]
[1]; [4]
  pIC50: 6.14
[2]
  Gametocytes mean ATP inhibition at 2µM (%): 57.55%
[3]
  pIC50: 4.94
HepG2 cells; mean
  HepG2 cells mean TOX50: 38.02 µM

## O=C(Nc1ccc(Cl)cc1)c1cc(Cl)cc2nc(C(F)(F)F)[nH]c12 [TCMDC-141586]
[1]; [5]
  pIC50: 6.89
[2]
  Gametocytes mean ATP inhibition at 2µM: 39.06%
[3]; P. falciparum female gametocyte activation assay
  pIC50: 5.77
HepG2 cells; mean; HepG2 cells
  HepG2 cells mean TOX50: 2.82 µM

## CC(=O)N(Cc1ccc(CC(C)NCCc2cccc(Cl)c2)cc1)Cc1ccc(CC(C)NCCc2cccc(Cl)c2)cc1 (stereo not drawn) [TCMDC-139678]
[1]; [4]
  pIC50: 6.11
[2]
  Gametocytes mean ATP inhibition at 2µM (%): 14.97%
[3]
  pIC50: 6.09
HepG2 cells; mean
  HepG2 cells mean TOX50: 2.85 µM

## CCCN(CCC)CCCN(CCCN(CCC)CCC)c1cc(C)nc(Nc2ccc3cc(Br)ccc3c2)n1.Cl [TCMDC-138006]
[1]; [4]
  pIC50: 6.68
[2]
  Gametocytes mean ATP inhibition at 2µM (%): -22.37%
[3]
  pIC50: 6.00
HepG2 cells; mean
  HepG2 cells mean TOX50: 3.43 µM

## COc1ccccc1CNc1ccnc(N2CC(Oc3ccc(F)cc3)C2)n1 [TCMDC-135118]
[1]; [5]
  pIC50: 6.07
[2]
  Gametocytes mean ATP inhibition at 2µM: 42.55%
[3]; [6]
  pIC50: 5.39
HepG2 cells; HepG2 cells; mean
  HepG2 cells mean TOX50: 73.68 µM

## Nc1c(Cl)cc(C(O)CNCCCCCOCCCc2ccc(O)c3ncccc23)cc1Cl.O=C(O)/C=C/C(=O)O (stereo not drawn) [TCMDC-132088]
[1]; [5]
  pIC50: 6.00
[2]
  Gametocytes mean ATP inhibition at 2µM: 76.89%
[3]; [6]
  pIC50: 5.68
HepG2 cells; HepG2 cells; mean
  HepG2 cells mean TOX50: 7.76 µM

## CN(C)CCN(C)Cc1cccc(-c2ccc3c(Nc4ccc(F)cc4Cl)ccnc3c2)c1 [TCMDC-138416]
[1]; [4]
  pIC50: 6.96
[2]
  Gametocytes mean ATP inhibition at 2µM (%): 39.96%
[3]
  pIC50: 5.15
HepG2 cells; mean
  HepG2 cells mean TOX50: 6.10 µM

## Clc1ccc(/N=C(/NCCCCCCCN/C(=N\c2ccc(Cl)cc2)Nc2ccc(Cl)cc2)Nc2ccc(Cl)cc2)cc1 [TCMDC-137529]
[1]; [4]
  pIC50: 6.49
[2]
  Gametocytes mean ATP inhibition at 2µM (%): 15.83%
[3]
  pIC50: 6.24
HepG2 cells; mean
  HepG2 cells mean TOX50: 2.00 µM

## COc1ccc(NC(=O)c2cccc(Br)c2)cc1N1CCN(CCCCCCCN2CCN(c3cc(NC(=O)c4cccc(Br)c4)ccc3OC)CC2)CC1.Cl [TCMDC-139020]
[1]; [4]
  pIC50: 6.74
[2]
  Gametocytes mean ATP inhibition at 2µM (%): -4.19%
[3]
  pIC50: 5.97
HepG2 cells; mean
  HepG2 cells mean TOX50: 6.03 µM

## Cc1ccc(-c2nc3cc(NC(=O)c4ccc([N+](=O)[O-])o4)ccc3o2)cc1Cl [TCMDC-123657]
[1]; [5]
  pIC50: 6.80
[2]
  Gametocytes mean ATP inhibition at 2µM: 8.99%
[3]; [6]
  pIC50: 5.87
HepG2 cells; HepG2 cells; mean
  HepG2 cells mean TOX50: 1.72 µM

## COc1ccc2ccccc2c1CCCCN1CCN(CC(c2ccc(F)cc2)N2CCC2)CC1.O=C(O)C(F)(F)F (stereo not drawn) [TCMDC-135867]
[1]; [4]
  pIC50: 6.12
[2]
  Gametocytes mean ATP inhibition at 2µM (%): -0.41%
[3]
  pIC50: 5.23
HepG2 cells; mean
  HepG2 cells mean TOX50: 4.37 µM

## COc1ccc2c(c1)CC(C)(C)NC2CCCCCCCCC1NC(C)(C)Cc2cc(OC)ccc21.O=C(O)C(=O)O (stereo not drawn) [TCMDC-137935]
[1]; [4]
  pIC50: 5.89
[2]
  Gametocytes mean ATP inhibition at 2µM (%): 1.39%
[3]
  pIC50: 5.83
HepG2 cells; mean
  HepG2 cells mean TOX50: 5.62 µM

## COc1ccc(C[C@H](N)C(=O)N[C@H]2[C@@H](O)[C@H](n3cnc4c(N(C)C)ncnc43)O[C@@H]2CO)cc1 [TCMDC-123493]
[1]; [5]
  pIC50: 6.77
[2]; Plasmodium falciparum, mean
  inhibition at 2 µM: 63.8%
[3]; Plasmodium falciparum, P. falciparum female gametocytes
  pIC50: 6.54
HepG2 cells; HepG2 TOX50 versus Pf FGAA IC50
  Selectivity ratio: 6.24
HepG2 cells; HepG2 cells; mean
  HepG2 cells mean TOX50: 1.80 µM

## COc1c(CNCCCCCCNCc2c(OC)c(OC)c3ccccc3c2OC)c(OC)c2ccccc2c1OC.CS(=O)(=O)O [TCMDC-137837]
[1]; [4]
  pIC50: 6.02
[2]
  Gametocytes mean ATP inhibition at 2µM (%): 18.67%
[3]
  pIC50: 5.43
HepG2 cells; mean
  HepG2 cells mean TOX50: 4.42 µM
